{
  "source": "patent US20150064200A1",
  "about": "“METHODS AND COMPOSITIONS FOR 6-PHOSPHOGLUCONATE DEHYDROGENASE (6-PGD) AS A TARGET FOR LUNG CANCER THERAPY” (BETH ISRAEL DEACONESS MEDICAL CENTER, INC., priority 2012, published 2015)",
  "key": {"mouse 6-PGD": {"system": "mouse 6-PGD", "test": "Western blot of exogenous mouse 6-PGD expression in rescue experiment", "type": "cell-based", "details": "H1975 cells transduced with mouse-6PGD retrovirus, doxycycline induction", "text": "(§1) To test the functional role of 6-PGD in human non small cell lung carcinoma (NSCLC), we used H1975 cells as our model system (FIG. 2A). These adenocarcinoma cells harbor two mutations in the EGFR (L858R/T790M) and are widely used to study the mechanism and treatment of gefitinib/erlotinib-resistant lung cancer cells. We chose to use an inducible shRNA system to knock down 6-PGD expression. Three nonoverlapping shRNAs were chosen in these experiments. […] Importantly, 6-PGD expression knockdown caused a substantial decrease in cell proliferation. To further corroborate the involvement of 6-PGD in NSCLC proliferation in vitro, we performed expression rescue experiments (FIG. 2B). H1975 cells expressing control shRNA or 6-PGD shRNA1 were transduced by either empty- or mouse-6PGD retrovirus. […] Overexpression of mouse 6-PGD alone enhanced H1975 cell growth. […] Our result confirmed that the growth inhibition was due to 6-PGD knockdown and not a non-specific artifact of the shRNA."}, "H1975 cells [1]": {"system": "H1975 cells", "test": "Cell proliferation of H1975 cells upon knockdown", "type": "cell-based, human", "details": "6-PGD knockdown", "text": "as §1\nThe dramatic decrease in cell proliferation when 6-PGD was knocked down implies that the oxidative branch of the pentose phosphate pathway (PPP) could be indispensable for cell growth. […] To address this discrepancy, we next knocked down G6PD by transient siRNA transfection in H1975 cells. […] Therefore, the dramatic growth inhibition observed when 6-PGD was knocked down was not simply a result of PPP blockade. […]"}, "[2]": {"system": "senescence-associated beta galactosidase (SA-β-GAL) activity", "test": "Senescence-associated beta galactosidase (SA-β-GAL) staining and chromogenic assay", "type": "cell-based, human", "details": "cells with 6-PGD knockdown", "text": "We noticed that the cells with 6-PGD knocked down were enlarged and flattened-shapes characteristic of cells undergoing senescence. We therefore stained the cells for senescence-associated beta galactosidase (SA-β-GAL) activity. Because shRNA1 and shRNA2 had the most dramatic effects on 6-PGD expression and cell proliferation, we opted to test these two shRNAs in these experiments. […] Therefore, we concluded that suppression of 6-PGD induces cellular senescence in these cancer cells.\nWe tested whether the use of glucose or fructose in the medium might influence the phenotypic outcome of 6-PGD suppression. Fructose can be used to generate glycolytic metabolites via different pathways. For example, in the liver, fructose can be phosphorylated by fructokinase to yield fructose-1-phosphate and ultimately glyceraldehyde-3-phosphate to re-enter glycolysis. Fructose can also enter glycolysis when phosphorylated by hexokinase to become fructose-6-phosphate. We reasoned that if H1975 could metabolize fructose by these mechanisms, cells grown in fructose without glucose would likely be devoid of glucose-6-phosphate, bypassing the oxidative branch of the PPP. This scenario may be similar to the PPP shutdown by means of G6PD depletion. H1975 cells were treated with doxycycline to induce 6-PGD knockdown in 2 g/L fructose (no glucose). […]"}, "H1975 cells [3]": {"system": "H1975 cells", "test": "Oxygen consumption rate (OCR)", "type": "cell-based, human", "text": "We suspected that upon 6-PGD knockdown, these cells might have maintained NADPH level by enhanced glutaminolysis, another major mechanism for NADPH production. We therefore examined the rate of oxygen consumption of these cells, as NADPH production via glutaminolysis requires oxygen."}, "H1975 cells [4]": {"system": "H1975 cells", "test": "H1975 xenograft tumor growth in nude mice", "type": "in vivo", "details": "H1975 cells induced with doxycycline, subcutaneous in nude mice, tumors weighed after 18 days", "text": "We sought to test whether 6-PGD knockdown would inhibit tumor growth in a xenograft model. Control shRNA-, 6-PGD shRNA1, and 6-PGD shRNA2-H1975 cells were induced with doxycycline in vitro for three days prior to subcutaneous injection into nude mice. Mice were fed with doxycycline supplemented in drinking water. Tumors were excised after 18 days and weighed."}, "6-PGD": {"system": "6-PGD", "test": "Western blot of 6-PGD expression after inducible shRNA knockdown", "type": "cell-based, human", "details": "H1975 cells", "text": "as §1"}, "p53": {"system": "p53", "test": "Western blot of p53 expression in cells with 6-PGD knockdown", "type": "cell-based, human", "details": "H1975 cells", "text": "One of the main mechanisms for cellular senescence induction is the p53 pathway. Therefore we hypothesized that p53 expression might be increased in cells with 6-PGD knockdown."}, "H1975 cells [5]": {"system": "H1975 cells", "test": "Metabolite levels by mass spectrometry upon 6-PGD knockdown", "type": "cell-based, human", "details": "H1975, doxycycline three days, vs control shRNA", "experimental": "Both control- and 6-PGD shRNA1-expressing H1975 cells were treated with doxycycline for three days. Metabolites were extracted for analysis by mass spectrometry. Results are grouped according to metabolic pathways (Table 5). […] Specifically, as might be expected, 6-phospho-D-gluconate and D-glucono-δ-lactone-6-phosphate levels were up by 11 and 7.9 fold, respectively. Direct determination of the effects in the non-oxidative branch was more difficult, as levels of some key intermediates such as xylulose-5-phosphate and D-sedo-heptulose-7-phosphate were not determined in our mass spectrometric analysis. However, there was no change in the level of total ribose phosphates, downstream products of the PPP. Importantly, levels of all the triphosphate nucleotides essential for DNA and RNA synthesis were essentially unchanged. […] Glycolysis also appeared to be affected by 6-PGD knockdown. Both glucose-6-phosphate and fructose-6-phosphate levels were increased, perhaps due to a backlog in the PPP. […] We believe that these intermediates were shunted to the non-oxidative PPP via the transketolase reactions using glyceraldehyde-3-phosphate as the entry point. These transketolase reactions would compensate for the blockade at 6-PGD and provide a carbon source for ribose phosphate production and maintenance of dNTP/NTP levels. […] In particular NADPH level was determined by this metabolomic analysis to be also unchanged by 6-PGD knockdown, consistent with result obtained by the colorimetric assay (FIG. 5A)."}},
  "note": "Values joined by “and” are separate entries in the source; they are usually repeats but may differ in a detail not shown here. Identical values can stand only once.",
  "data": [
    {"substance": "shRNA1: 6-PGD specific shRNA from Open Biosystems, Oligo ID V3LHS_381993, mature sequence AGU UUG AUG GUG AUA AGA A (guide AGUUUGAUGGUGAUAAGAA; shRNA hairpin; mature sequence only)", "values": [
      {"measurement": "expression of mouse 6-PGD", "setting": "mouse 6-PGD", "result": "without affecting the expression of mouse 6-PGD"},
      {"measurement": "cell proliferation", "setting": "H1975 cells [1]", "result": "significantly blocked proliferation"},
      {"measurement": "number of cells positive for SA-β-GAL staining", "setting": "[2]", "result": "significantly increased"},
      {"measurement": "oxygen consumption rate (OCR)", "setting": "H1975 cells [3]", "result": "significant increase"},
      {"measurement": "tumor growth", "setting": "H1975 cells [4]", "result": "significantly retarded tumor growth"},
      {"measurement": "expression of 6-PGD", "setting": "6-PGD", "result": "most effective"},
      {"measurement": "p53 expression", "setting": "p53", "result": "significantly upregulated"},
      {"measurement": "Fold Change Glutamate", "setting": "H1975 cells [5]; Glutamine/Glutamate", "result": "−1.1", "unit": "fold"},
      {"measurement": "Fold Change Glutamine", "setting": "H1975 cells [5]; Glutamine/Glutamate", "result": "−1.1", "unit": "fold"},
      {"measurement": "Fold Change 1,3-Diphopshateglycerate", "setting": "H1975 cells [5]; Glycolysis", "result": 0.0, "unit": "fold"},
      {"measurement": "Fold Change 3-Phosphoglycerate", "setting": "H1975 cells [5]; Glycolysis", "result": "−2.1", "unit": "fold"},
      {"measurement": "Fold Change D-Glyceraldehdye-3-phosphate", "setting": "H1975 cells [5]; Glycolysis", "result": "−3.8", "unit": "fold"},
      {"measurement": "Fold Change Dihyroxyacetone-phosphate", "setting": "H1975 cells [5]; Glycolysis", "result": "−5.9", "unit": "fold"},
      {"measurement": "Fold Change Fructose-1,6-bisphosphate", "setting": "H1975 cells [5]; Glycolysis", "result": "−4.6", "unit": "fold"},
      {"measurement": "Fold Change Fructose-6-phosphate", "setting": "H1975 cells [5]; Glycolysis", "result": 1.4, "unit": "fold"},
      {"measurement": "Fold Change Glucose-6-phosphate", "setting": "H1975 cells [5]; Glycolysis", "result": 1.8, "unit": "fold"},
      {"measurement": "Fold Change Lactate", "setting": "H1975 cells [5]; Glycolysis", "result": "−1.2", "unit": "fold"},
      {"measurement": "Fold Change Phosphoenolpyruvate", "setting": "H1975 cells [5]; Glycolysis", "result": "−2.8", "unit": "fold"},
      {"measurement": "Fold Change Pyruvate", "setting": "H1975 cells [5]; Glycolysis", "result": 1.3, "unit": "fold"},
      {"measurement": "Fold Change ATP", "setting": "H1975 cells [5]; NTPs/dNTPs", "result": 1.2, "unit": "fold"},
      {"measurement": "Fold Change CTP", "setting": "H1975 cells [5]; NTPs/dNTPs", "result": 1.0, "unit": "fold"},
      {"measurement": "Fold Change GTP", "setting": "H1975 cells [5]; NTPs/dNTPs", "result": 1.5, "unit": "fold"},
      {"measurement": "Fold Change UTP", "setting": "H1975 cells [5]; NTPs/dNTPs", "result": 1.2, "unit": "fold"},
      {"measurement": "Fold Change dATP", "setting": "H1975 cells [5]; NTPs/dNTPs", "result": "−1.1", "unit": "fold"},
      {"measurement": "Fold Change dCTP", "setting": "H1975 cells [5]; NTPs/dNTPs", "result": 1.0, "unit": "fold"},
      {"measurement": "Fold Change dGTP", "setting": "H1975 cells [5]; NTPs/dNTPs", "result": 1.2, "unit": "fold"},
      {"measurement": "Fold Change dTTP", "setting": "H1975 cells [5]; NTPs/dNTPs", "result": "−1.2", "unit": "fold"},
      {"measurement": "Fold Change D-Glucono-δ-lactone-6-phosphate", "setting": "H1975 cells [5]; PPP", "result": 7.9, "unit": "fold"},
      {"measurement": "Fold Change Ribose-phosphate", "setting": "H1975 cells [5]; PPP", "result": 1.2, "unit": "fold"},
      {"measurement": "Fold Change 6-Phospho-D-gluconate", "setting": "H1975 cells [5]; PPP, listed as 6-PGD shRNA1", "result": "11 fold and 11.0 fold"},
      {"measurement": "Fold Change Glutathione", "setting": "H1975 cells [5]; REDOX", "result": "−1.3", "unit": "fold"},
      {"measurement": "Fold Change Glutathione disulfide", "setting": "H1975 cells [5]; REDOX", "result": 1.0, "unit": "fold"},
      {"measurement": "Fold Change NAD+", "setting": "H1975 cells [5]; REDOX", "result": 1.2, "unit": "fold"},
      {"measurement": "Fold Change NADH", "setting": "H1975 cells [5]; REDOX", "result": "−1.5", "unit": "fold"},
      {"measurement": "Fold Change NADP+", "setting": "H1975 cells [5]; REDOX", "result": 1.3, "unit": "fold"},
      {"measurement": "Fold Change NADPH", "setting": "H1975 cells [5]; REDOX", "result": "−1.1", "unit": "fold"},
      {"measurement": "Fold Change Acetyl-CoA", "setting": "H1975 cells [5]; TCA", "result": 1.6, "unit": "fold"},
      {"measurement": "Fold Change Citrate", "setting": "H1975 cells [5]; TCA", "result": 1.1, "unit": "fold"},
      {"measurement": "Fold Change Fumarate", "setting": "H1975 cells [5]; TCA", "result": 1.0, "unit": "fold"},
      {"measurement": "Fold Change Isocitrate", "setting": "H1975 cells [5]; TCA", "result": "−1.1", "unit": "fold"},
      {"measurement": "Fold Change Malate", "setting": "H1975 cells [5]; TCA", "result": "−1.3", "unit": "fold"},
      {"measurement": "Fold Change Oxaloacetate", "setting": "H1975 cells [5]; TCA", "result": "−1.1", "unit": "fold"},
      {"measurement": "Fold Change Succinate", "setting": "H1975 cells [5]; TCA", "result": "−1.3", "unit": "fold"},
      {"measurement": "Fold Change α-Ketoglutarate", "setting": "H1975 cells [5]; TCA", "result": "−1.2", "unit": "fold"}
    ]},
    {"substance": "shRNA2: 6-PGD specific shRNA from Open Biosystems, Oligo ID V3LHS_381995, mature sequence AGG ACU GUC UCC AAA GUU G (guide AGGACUGUCUCCAAAGUUG; shRNA hairpin; mature sequence only)", "values": [
      {"measurement": "number of cells positive for SA-β-GAL staining", "setting": "[2]", "result": "significantly increased"},
      {"measurement": "oxygen consumption rate (OCR)", "setting": "H1975 cells [3]", "result": "significant increase"},
      {"measurement": "tumor growth", "setting": "H1975 cells [4]", "result": "significantly retarded tumor growth"},
      {"measurement": "expression of 6-PGD", "setting": "6-PGD", "result": "most effective"},
      {"measurement": "p53 expression", "setting": "p53", "result": "significantly upregulated"}
    ]}
  ]
}
